PubChem BioAssay AID248 (DTP/NCI, 2004)
Where “and” joins values, the source holds several entries; their conditions need not be identical. Equal entries are not always repeated. Toxic doses and inconclusive results are not listed.

Test system: L1210 leukemia ip in BDF1 mice, survival T/C
Experiment: NCI In Vivo Anticancer Drug Screen. Data for tumor model L1210 Leukemia (intraperitoneal) in B6D2F1 (BDF1) mice
Details: endpoint: mean survival time, higher = longer survival
Outline: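 Transplanted-tumor mice were given test agent; controls received vehicle only. Survival readings from the two groups were divided (treated over control).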

[1] = dose: 12.5 mg/kg/injection, schedule: Q04DX003 (ip), vehicle: saline
[2] = dose: 25.0 mg/kg/injection, schedule: Q01DX009 (ip), vehicle: saline
[3] = dose: 25.0 mg/kg/injection, schedule: Q04DX003 (ip), vehicle: saline
[4] = dose: 50.0 mg/kg/injection, schedule: Q04DX003 (ip), vehicle: saline
[5] = dose: 100.0 mg/kg/injection, schedule: Q01DX009 (ip), vehicle: Klucel (hydroxypropylcellulose) (HPC)
[6] = dose: 200.0 mg/kg/injection, schedule: Q01DX009 (ip), vehicle: Klucel (hydroxypropylcellulose) (HPC)
[7] = dose: 400.0 mg/kg/injection, schedule: Q01DX009 (ip), vehicle: Klucel (hydroxypropylcellulose) (HPC)
[8] = dose: 100.0 mg/kg/injection, schedule: Q01DX001 (ip), vehicle: saline
[9] = dose: 200.0 mg/kg/injection, schedule: Q01DX001 (ip), vehicle: saline
[10] = dose: 400.0 mg/kg/injection, schedule: Q01DX001 (ip), vehicle: saline
[11] = dose: 50.0 mg/kg/injection, schedule: Q01DX001 (ip), vehicle: Klucel (hydroxypropylcellulose) (HPC)
[12] = dose: 100.0 mg/kg/injection, schedule: Q01DX001 (ip), vehicle: Klucel (hydroxypropylcellulose) (HPC)
[13] = dose: 200.0 mg/kg/injection, schedule: Q01DX001 (ip), vehicle: Klucel (hydroxypropylcellulose) (HPC)
[14] = dose: 100.0 mg/kg/injection, schedule: Q01DX009 (ip), vehicle: saline with Tween-80
[15] = dose: 200.0 mg/kg/injection, schedule: Q01DX009 (ip), vehicle: saline with Tween-80
[16] = dose: 12.5 mg/kg/injection, schedule: Q04DX003 (ip), vehicle: Klucel (hydroxypropylcellulose) (HPC)
[17] = dose: 25.0 mg/kg/injection, schedule: Q04DX003 (ip), vehicle: Klucel (hydroxypropylcellulose) (HPC)
[18] = dose: 100.0 mg/kg/injection, schedule: Q04DX003 (ip), vehicle: other
[19] = dose: 200.0 mg/kg/injection, schedule: Q04DX003 (ip), vehicle: other
[20] = dose: 100.0 mg/kg/injection, schedule: Q04DX003 (ip), vehicle: Klucel (hydroxypropylcellulose) (HPC)
[21] = dose: 200.0 mg/kg/injection, schedule: Q04DX003 (ip), vehicle: Klucel (hydroxypropylcellulose) (HPC)
[22] = dose: 400.0 mg/kg/injection, schedule: Q04DX003 (ip), vehicle: Klucel (hydroxypropylcellulose) (HPC)

C1=C(c2ccccc2)[P+](c2ccccc2)(c2ccccc2)C=C(c2ccccc2)[P+]1(c1ccccc1)c1ccccc1
T/C (dose: 12.5 mg/kg/injection, schedule: Q01DX009 (ip), vehicle: saline): 108 % of control | T/C [1]: 106 % of control | T/C [2]: 109 % of control | T/C [3]: 109 % of control | T/C [4]: 102 % of control

CS(=O)(=O)OCC1CCCCC1COS(C)(=O)=O (stereo not given)
T/C [5]: 107 % of control | T/C [6]: 104 % of control | T/C [7]: 93 % of control

CC(Br)CCON1C(=O)c2ccccc2C1=O (stereo not given)
T/C (dose: 50.0 mg/kg/injection, schedule: Q01DX001 (ip), vehicle: saline): 112 % of control | T/C [8]: 102 % of control | T/C [9]: 96 % of control | T/C [10]: 96 % of control

CCOC(=O)c1sc2cc[nH]c2c1O
T/C [11]: 102 % of control | T/C [12]: 100 % of control | T/C [13]: 94 % of control

CCN=C(c1ccc(NC(=O)c2ccc(C(=O)Nc3ccc(C(=NCC)N(CC)C(=O)OC)cc3)cc2)cc1)N(CC)C(=O)OC
T/C (dose: 1.5 mg/kg/injection, schedule: Q01DX015 (ip), vehicle: methylcellulose (MC)): 112 % of control | T/C (dose: 7.5 mg/kg/injection, schedule: Q01DX015 (ip), vehicle: methylcellulose (MC)): 167 % of control

COC(=O)c1ccc(SSc2ccc(C(=O)OC)cc2[N+](=O)[O-])c([N+](=O)[O-])c1
T/C [14]: 103 % of control | T/C [15]: 102 % of control | T/C (dose: 400.0 mg/kg/injection, schedule: Q01DX009 (ip), vehicle: saline with Tween-80): 92 % of control

CC1C=CC(C(=O)Nc2ccc(Cl)c(Cl)c2)N1C (stereo not given)
T/C (dose: 50.0 mg/kg/injection, schedule: Q01DX009 (ip), vehicle: saline with Tween-80): 94 % of control | T/C [14]: 91 % of control | T/C [15]: 93 % of control

C=C1C(=O)OC2C1CCC(C)C1CC(O)C(O)C12C (stereo not given)
T/C [16]: 96 % of control | T/C [17]: 101 % of control | T/C (dose: 50.0 mg/kg/injection, schedule: Q04DX003 (ip), vehicle: Klucel (hydroxypropylcellulose) (HPC)): 101 % of control

COc1ccc2c(c1)CC1c3[nH]c4ccccc4c3CCN1C2 (stereo not given)
T/C [12]: 94 % of control | T/C [13]: 92 % of control

CCOc1cc(C=Nc2cccc(C(F)(F)F)c2)ccc1O
T/C (dose: 100.0 mg/kg/injection, schedule: Q01DX009 (ip), vehicle: other): 100 % of control | T/C [18]: 95 % of control | T/C (dose: 200.0 mg/kg/injection, schedule: Q01DX009 (ip), vehicle: other): 99 % of control | T/C [19]: 90 % of control | T/C (dose: 400.0 mg/kg/injection, schedule: Q04DX003 (ip), vehicle: other): 92 % of control

CCN(CC)c1ccc(N=Nc2cc(Cl)ccc2Cl)c(NC(=O)CCC(=O)O)c1
T/C (dose: 100.0 mg/kg/injection, schedule: Q04DX003 (ip), vehicle: saline with Tween-80): 96 % of control | T/C (dose: 200.0 mg/kg/injection, schedule: Q04DX003 (ip), vehicle: saline with Tween-80): 96 % of control | T/C (dose: 400.0 mg/kg/injection, schedule: Q04DX003 (ip), vehicle: saline with Tween-80): 95 % of control

O=C(c1ccc([N+](=O)[O-])cc1)c1ccccn1
T/C [5]: 103 % of control | T/C [20]: 101 % of control | T/C [6]: 102 % of control | T/C [21]: 93 % of control | T/C [7]: 115 % of control | T/C [22]: 92 % of control

O=C(O)c1ccc(NC(=O)c2cccc(F)c2)cc1
T/C [5]: 100 % of control | T/C [6]: 108 % of control | T/C [7]: 101 % of control

CC(=O)Oc1ccc(/C=C(\NC(=O)c2ccccc2)C(=O)O)cc1
T/C [20]: 95 % of control | T/C [21]: 91 % of control | T/C [22]: 91 % of control

Cc1ccc(S(=O)(=O)CCN2CCc3ccccc3C2)cc1
T/C [8]: 103 % of control | T/C [9]: 100 % of control | T/C [10]: 97 % of control

CCC(C)C(C#N)(CCN(CC)CC)c1ccccc1 (stereo not given)
T/C (dose: 50.0 mg/kg/injection, schedule: Q01DX009 (ip), vehicle: Klucel (hydroxypropylcellulose) (HPC)): 104 % of control | T/C [5]: 100 % of control | T/C [20]: 111 % of control | T/C [21]: 103 % of control

CCOC(=O)c1ccc(Nc2sc(C(=O)c3ccc(C)cc3C)c(N)c2C#N)cc1
T/C (dose: 100.0 mg/kg/injection, schedule: Q04DX002 (ip), vehicle: gum acacia): 89 % of control | T/C (dose: 200.0 mg/kg/injection, schedule: Q04DX002 (ip), vehicle: gum acacia): 92 % of control | T/C (dose: 400.0 mg/kg/injection, schedule: Q04DX002 (ip), vehicle: gum acacia): 99 % of control

Cc1ccc(NCC(O)CN2CCCC2)cc1 (stereo not given)
T/C (dose: 6.0 mg/kg/injection, schedule: Q01DX009 (ip), vehicle: Klucel (hydroxypropylcellulose) (HPC)): 94 % of control | T/C (dose: 12.0 mg/kg/injection, schedule: Q01DX009 (ip), vehicle: Klucel (hydroxypropylcellulose) (HPC)): 92 % of control | T/C (dose: 12.5 mg/kg/injection, schedule: Q01DX001 (ip), vehicle: Klucel (hydroxypropylcellulose) (HPC)): 93 % of control | T/C [16]: 104 % of control | T/C (dose: 25.0 mg/kg/injection, schedule: Q01DX001 (ip), vehicle: Klucel (hydroxypropylcellulose) (HPC)): 93 % of control | T/C (dose: 25.0 mg/kg/injection, schedule: Q01DX009 (ip), vehicle: Klucel (hydroxypropylcellulose) (HPC)): 96 % of control and 100 % of control | T/C [17]: 96 % of control | T/C [11]: 93 % of control

C/C=C/c1ccc(O)c(OC)c1
T/C (dose: 100.0 mg/kg/injection, schedule: Q04DX002 (ip), vehicle: saline with Tween-80): 92 % of control | T/C (dose: 200.0 mg/kg/injection, schedule: Q04DX002 (ip), vehicle: saline with Tween-80): 86 % of control | T/C (dose: 400.0 mg/kg/injection, schedule: Q04DX002 (ip), vehicle: saline with Tween-80): 86 % of control

CC[N+](C)(CC)CCN1c2ccccc2Sc2ccccc21
T/C [1]: 91 % of control | T/C [3]: 94 % of control and 86 % of control | T/C [4]: 86 % of control and 88 % of control

COc1ccc(C(=O)/C=C/c2ccc3c(c2)OCO3)cc1
T/C [20]: 100 % of control | T/C [21]: 94 % of control | T/C [22]: 93 % of control

Cc1cc2c(c(Cl)n1)C(=O)OC2=O
T/C (dose: 75.0 mg/kg/injection, schedule: Q01DX001 (ip), vehicle: other): 95 % of control | T/C (dose: 150.0 mg/kg/injection, schedule: Q01DX001 (ip), vehicle: other): 95 % of control | T/C (dose: 300.0 mg/kg/injection, schedule: Q01DX001 (ip), vehicle: other): 103 % of control

CCOC(=O)c1cnn(-c2ccccc2)c1N
T/C [2]: 104 % of control | T/C (dose: 50.0 mg/kg/injection, schedule: Q01DX009 (ip), vehicle: saline): 108 % of control | T/C [5]: 98 % of control | T/C (dose: 100.0 mg/kg/injection, schedule: Q01DX009 (ip), vehicle: saline): 105 % of control | T/C [20]: 96 % of control | T/C [6]: 100 % of control | T/C [21]: 100 % of control | T/C [7]: 102 % of control | T/C [22]: 100 % of control

OC1C=NC=N1 (stereo not given)
T/C (dose: 100.0 mg/kg/injection, schedule: Q04DX003 (ip), vehicle: saline): 92 % of control | T/C (dose: 200.0 mg/kg/injection, schedule: Q04DX003 (ip), vehicle: saline): 109 % of control | T/C (dose: 400.0 mg/kg/injection, schedule: Q04DX003 (ip), vehicle: saline): 95 % of control

Cc1cc(C)c2ccc(=O)[nH]c2n1
T/C [8]: 92 % of control | T/C [9]: 101 % of control | T/C [10]: 101 % of control

COc1ccnc2ccc(C)c([N+](=O)[O-])c12
T/C [18]: 96 % of control | T/C [19]: 90 % of control
